Laboratory results published in patent US11724992B2 (Novartis AG, priority 2017, dated 2023).

Each compound was assayed on IL-1β production in PMA-differentiated THP-1 cells (assay: IL-1β production in PMA-differentiated THP-1 cells stimulated with gramicidin (hTHP-1 assay, 2% fetal bovine serum; Procedures 1-3)). Settings: Homo sapiens, THP-1, hTHP-1 assay containing 2% fetal bovine serum; class symbols; read-out: hTHP-1 IC50 (Average IC50 of compounds in hTHP-1 assay).
Assay type: cell-based, human
Description: The following protocol is suitable for testing the activity of the compounds disclosed herein.
Procedure 1: IL-1β Production in PMA-Differentiated THP-1 Cells Stimulated with Gramicidin
THP-1 cells were purchased from the American Type Culture Collection and sub-cultured according to instructions from the supplier. Cells were cultured in complete RPMI 1640 (containing 10% heat inactivated FBS, penicillin (100 units/ml) and streptomycin (100 μg/ml)), and maintained in log phase prior to experimental setup. Prior to the experiment, compounds were dissolved in dimethyl sulfoxide (DMSO) to generate a 30 mM stock. The compound stock was first pre-diluted in DMSO to 3, 0.34, 0.042 and 0.0083 mM intermediate concentrations and subsequently spotted using Echo550 liquid handler into an empty 384-well assay plate to achieve desired final concentration (e.g. 100, 33, 11, 3.7, 1.2, 0.41, 0.14, 0.046, 0.015, 0.0051, 0.0017 μM). DMSO was backfilled in the plate to achieve a final DMSO assay concentration of 0.37%. The plate was then sealed and stored at room temperature until required.
THP-1 cells were treated with PMA (Phorbol 12-myristate 13-acetate) (20 ng/ml) for 16-18 hours. On the day of the experiment the media was removed and adherent cells were detached with trypsin for 5 minutes. Cells were then harvested, washed with complete RPMI 1640, spun down, and resuspended in RPMI 1640 (containing 2% heat inactivated FBS, penicillin (100 units/ml) and streptomycin (100 μg/ml). The cells were plated in the 384-well assay plate containing the spotted compounds at a density of 50,000 cells/well (final assay volume 50 μl). Cells were incubated with compounds for 1 hour and then stimulated with gramicidin (5 μM) (Enzo) for 2 hours. Plates were then centrifuged at 340 g for 5 min. Cell free supernatant (40 μL) was collected using a 96-channel PlateMaster (Gilson) and the production of IL-1β was evaluated by HTRF (cisbio). The plates were incubated for 18 h at 4° C. and read using the preset HTRF program (donor emission at 620 nm, acceptor emission at 668 nm) of the SpectraMax i3x spectrophotometer (Molecular Devices, software SoftMax 6). A vehicle only control and a dose titration of CRID3 (100-0.0017 μM) were run concurrently with each experiment.
Procedure 2: IL-1β Production in PMA-Differentiated THP-1 Cells Stimulated with Gramicidin
THP-1 cells were purchased from the American Type Culture Collection and sub-cultured according to instructions from the supplier. Prior to experiments, cells were cultured in complete RPMI 1640 (containing 10% heat inactivated FBS, penicillin (100 units/ml) and streptomycin (100 μg/ml)), and maintained in log phase prior to experimental setup. Prior to the experiment THP-1 were treated with PMA (Phorbol 12-myristate 13-acetate) (20 ng/ml) for 16-18 hours. Compounds were dissolved in dimethyl sulfoxide (DMSO) to generate a 30 mM stock. On the day of the experiment the media was removed and adherent cells were detached with trypsin for 5 minutes. Cells were then harvested, washed with complete RPMI 1640, spun down, resuspended in RPMI 1640 (containing 2% heat inactivated FBS, penicillin (100 units/ml) and streptomycin (100 μg/ml). The cells were plated in a 384-well plate at a density of 50,000 cells/well (final assay volume 50 μl). Compounds were first dissolved in assay medium to obtain a 5× top concentration of 500 μM. 10 step dilutions (1:3) were then undertaken in assay medium containing 1.67% DMSO. 5× compound solutions were added to the culture medium to achieve desired final concentration (e.g. 100, 33, 11, 3.7, 1.2, 0.41, 0.14, 0.046, 0.015, 0.0051, […]). Final DMSO concentration was at 0.37%. Cells were incubated with compounds for 1 hour and then stimulated with gramicidin (5 μM) (Enzo) for 2 hours. Plates were then centrifuged at 340 g for 5 min. Cell free supernatant (40 μL) was collected using a 96-channel PlateMaster (Gilson) and the production of IL-1β was evaluated by HTRF (cisbio). […]

| Structure (SMILES) | IC50 |
| --- | --- |
| CC(C)(O)c1ncc([S@](N)(=O)=NC(=O)Nc2c3c(cc4c2CC4)CCC3)s1 (single isomer, unassigned) [Example 224] | 0.008 to 0.04 µM |
| CC(C)(O)c1ncc([S@@](N)(=O)=NC(=O)Nc2c3c(cc4c2CC4)CCC3)s1 (single isomer, unassigned) [Example 225] | 1 to 5 µM |

Same assay, conditions: hTHP-1 assay containing 2% fetal bovine serum; class symbols; read-out: hTHP-1 IC50 (Average IC50 of compounds in hTHP-1 assay)

| Structure (SMILES) | IC50 |
| --- | --- |
| CC(C)(O)c1ccc(S(N)(=O)=NC(=O)Nc2c3c(c(F)c4c2CCC4)CCC3)c(Cl)c1 (single isomer, unassigned) [Example 158] | 1 to 5 µM |
| CC(C)(O)c1ccc(S(N)(=O)=NC(=O)Nc2c3c(c(F)c4c2CCC4)CCC3)c(Cl)c1 (single isomer, unassigned) [Example 159] | 5 to 30 µM |
| CN(C)Cc1cccc(S(N)(=O)=NC(=O)Nc2c3c(cc4c2CCC4)CCC3)c1 (single isomer, unassigned) [Example 160] | 0.2 to 1 µM |
| CN(C)Cc1cccc(S(N)(=O)=NC(=O)Nc2c3c(cc4c2CCC4)CCC3)c1 (single isomer, unassigned) [Example 161] | 5 to 30 µM |
| Cc1cc(S(N)(=O)=NC(=O)Nc2c3c(cc4c2CCC4)CCC3)ccc1C(C)(C)O (single isomer, unassigned) [Example 162] | 0.2 to 1 µM |
| Cc1cc(S(N)(=O)=NC(=O)Nc2c3c(cc4c2CCC4)CCC3)ccc1C(C)(C)O (single isomer, unassigned) [Example 163] | 5 to 30 µM |
| Cc1nc(C(C)(C)O)sc1S(N)(=O)=NC(=O)Nc1c2c(cc3c1CCC3)CCC2 (single isomer, unassigned) [Example 164] | 0.008 to 0.04 µM |
| Cc1nc(C(C)(C)O)sc1S(N)(=O)=NC(=O)Nc1c2c(cc3c1CCC3)CCC2 (single isomer, unassigned) [Example 165] | 1 to 5 µM |
| CC(C)(O)c1cc(F)cc(S(N)(=O)=NC(=O)Nc2c3c(c(F)c4c2CCC4)CCC3)c1 (single isomer, unassigned) [Example 170] | 1 to 5 µM |
| CC(C)(O)c1cc(F)cc(S(N)(=O)=NC(=O)Nc2c3c(c(F)c4c2CCC4)CCC3)c1 (single isomer, unassigned) [Example 171] | 0.2 to 1 µM |
| Cc1cc(S(N)(=O)=NC(=O)Nc2c(C(C)C)cc(OC(F)F)cc2C(C)C)sc1C(C)(C)O (single isomer, unassigned) [Example 172] | 0.2 to 1 µM |
| Cc1cc(S(N)(=O)=NC(=O)Nc2c(C(C)C)cc(OC(F)F)cc2C(C)C)sc1C(C)(C)O (single isomer, unassigned) [Example 173] | 1 to 5 µM |
| CC(C)(O)c1cc(S(N)(=O)=NC(=O)Nc2c3c(c(F)c4c2CCC4)CCC3)ccc1F (single isomer, unassigned) [Example 174] | 0.2 to 1 µM |
| CC(C)(O)c1cc(S(N)(=O)=NC(=O)Nc2c3c(c(F)c4c2CCC4)CCC3)ccc1F (single isomer, unassigned) [Example 175] | 1 to 5 µM |
| Cc1nc(C(C)(C)O)sc1S(N)(=O)=NC(=O)Nc1c2c(c(F)c3c1CCC3)CCC2 (single isomer, unassigned) [Example 176] | 0.008 to 0.04 µM |
| Cc1nc(C(C)(C)O)sc1S(N)(=O)=NC(=O)Nc1c2c(c(F)c3c1CCC3)CCC2 (single isomer, unassigned) [Example 177] | 1 to 5 µM |
| CC(C)(O)c1ccc(S(N)(=O)=NC(=O)Nc2c3c(cc4c2CCC4)CCC3)cc1F (single isomer, unassigned) [Example 178] | 5 to 30 µM |
| CC(C)(O)c1ccc(S(N)(=O)=NC(=O)Nc2c3c(cc4c2CCC4)CCC3)cc1F (single isomer, unassigned) [Example 179] | 1 to 5 µM |
| CNS(=O)(=NC(=O)Nc1c2c(c(F)c3c1CCC3)CCC2)c1cc(C(C)(C)O)cs1 (single isomer, unassigned) [Example 180] | 1 to 5 µM |
| CNS(=O)(=NC(=O)Nc1c2c(c(F)c3c1CCC3)CCC2)c1cc(C(C)(C)O)cs1 (single isomer, unassigned) [Example 181] | 5 to 30 µM |

| Structure (SMILES) | IC50 |
| --- | --- |
| CC(C)c1cc(C#N)cc(C(C)C)c1NC(=O)N=S(N)(=O)c1sc(C(C)(C)O)cc1F (single isomer, unassigned) [Example 182] | 0.008 to 0.04 µM |
| CC(C)c1cc(C#N)cc(C(C)C)c1NC(=O)N=S(N)(=O)c1sc(C(C)(C)O)cc1F (single isomer, unassigned) [Example 183] | 0.2 to 1 µM |
| CC(C)c1cc(C#N)cc(C(C)C)c1NC(=O)N=S(N)(=O)c1cc(C#N)cc(C(C)(C)O)c1 (single isomer, unassigned) [Example 184] | 0.2 to 1 µM |
| CC(C)c1cc(C#N)cc(C(C)C)c1NC(=O)N=S(N)(=O)c1cc(C#N)cc(C(C)(C)O)c1 (single isomer, unassigned) [Example 185] | 5 to 30 µM |
| CC(C)c1cc(C#N)cc(C(C)C)c1NC(=O)N=S(N)(=O)c1ccc(C(C)(C)O)s1 (single isomer, unassigned) [Example 186] | 0.04 to 0.2 µM |
| CC(C)c1cc(C#N)cc(C(C)C)c1NC(=O)N=S(N)(=O)c1ccc(C(C)(C)O)s1 (single isomer, unassigned) [Example 187] | 5 to 30 µM |
| CC(C)(O)c1nc(CO)c(S(N)(=O)=NC(=O)Nc2c3c(c(C#N)c4c2CCC4)CCC3)s1 (single isomer, unassigned) [Example 190] | 0.2 to 1 µM |
| CC(C)(O)c1nc(CO)c(S(N)(=O)=NC(=O)Nc2c3c(c(C#N)c4c2CCC4)CCC3)s1 (single isomer, unassigned) [Example 191] | 5 to 30 µM |
| CC(C)c1cc(C#N)c(F)c(C(C)C)c1NC(=O)N=S(N)(=O)c1sc(C(C)(C)O)nc1CO (single isomer, unassigned) [Example 194] | 1 to 5 µM |
| CC(C)c1cc(C#N)c(F)c(C(C)C)c1NC(=O)N=S(N)(=O)c1sc(C(C)(C)O)nc1CO (single isomer, unassigned) [Example 195] | 5 to 30 µM |
| CC(C)(O)c1coc(S(N)(=O)=NC(=O)Nc2c3c(cc4c2CCC4)CCC3)c1 (single isomer, unassigned) [Example 202] | 1 to 5 µM |
| CC(C)(O)c1coc(S(N)(=O)=NC(=O)Nc2c3c(cc4c2CCC4)CCC3)c1 (single isomer, unassigned) [Example 203] | < 0.008 µM |
| CC(C)(O)c1csc(S(N)(=O)=NC(=O)Nc2c3c(c(F)c4c2CCC4)CCC3)c1 (single isomer, unassigned) [Example 206] | 0.008 to 0.04 µM |
| CC(C)(O)c1csc(S(N)(=O)=NC(=O)Nc2c3c(c(F)c4c2CCC4)CCC3)c1 (single isomer, unassigned) [Example 207] | 0.2 to 1 µM |
| CC(C)(O)c1cnc(S(N)(=O)=NC(=O)Nc2c3c(cc4c2CCC4)CCC3)s1 (single isomer, unassigned) [Example 296, (R) or (S)-N′-((1,2,3,5,6,7-hexahydro-s-indacen-4-yl)carbamoyl)-5-(2-hydroxypropan-2-yl)thiazole-2-sulfonimidamide] | < 0.008 µM |
